Measurements from patent US11213567B2, “ZAG-derived peptide and use thereof” (L&C Bio Co., LTD., priority 2017, dated 2022).

Legend:
CCL17/TARC = test: Atopic dermatitis efficacy test using keratinocytes (HaCaT): CCL17/TARC released after TNF-α and IFN-γ, ELISA; assay type: cell-based, human; set-up: key to HaCaT (human) CCL17/TARC: •: have statistical significance, determining as effective, compared with the positive control; conditions: for CCL17/TARC concentration released in cell culture medium: Example 2-3, FIG. 2C, HaCaT, 1 μg/mL 24 hours, TNF-α 0.4 μg/mL and IFN-γ 0.4 μg/mL 24 hours, compared with positive control (Pos); for HaCaT (human) CCL17/TARC: 1 μg/mL for 24 hours, then TNF-α 0.4 μg/mL, IFN-γ 0.4 μg/mL 24 hours
Experimental: (§1) To select an amino acid sequence corresponding to a key active site of ZAG having efficacy in the alleviation of atopic symptoms from 18 peptide candidate groups, an atopic dermatitis efficacy test was performed. Five types of immune-related cells were treated with ZAG peptide candidate groups (Z1-Z18, SEQ ID NOs: 1 to 18, respectively) and the ZAG protein (Z0, SEQ ID NOs: 19) at a concentration of 1 μg/mL for 24 hours, and then treated with a stimulator suitable for each cell line for the listed time to confirm an immune response. The experiment was performed with a group treated with only a stimulator as a positive control experimental group, and a group treated with only a vehicle without a stimulator as a negative control experimental group (Table 2: Efficacy test method for atopic dermatitis). An inflammatory response-related enzyme used as a stimulator is produced by immune cells, and histamine initiates an inflammatory response. The immune cells migrating to a damaged region release cytokines such as tumor necrosis factor-α (TNF-α) and interleukin-6 (IL-6) to directly lyse foreign invasive substances or collect other immune cells to initiate an inflammatory response. An efficacy test using inflammation-inducing materials, interferon-γ and skin inflammation-related factor CCL-17/thymus- and activation-regulated chemokine (TARC) was also performed to confirm an immune response.
Keratinocytes (HaCaT cells) were treated with 0.4 μg/mL of TNF-α and 0.4 μg/mL of IFN-γ as stimulators for 24 hours, and then a concentration of CCL17/TARC released in a cell culture medium was confirmed by ELISA assay.
(§2) Various types of immune cells were treated with each of Z20mer-1, Z20mer-2, Z20mer-3, Z15mer-1, Z15mer-2, Z15mer-3 and Z15mer-4 at a concentration of 1 μg/mL for 24 hours, and then treated with a stimulator suitable for each cell line for the listed time to confirm an immune response. The atopic dermatitis efficacy test method was performed by the same method as described in Example 1 and Table 2.
(§3) The experiment was performed with experimental groups: 1) negative control: vehicle-treated group (Neg), 2) positive control: a group treated with only a stimulator (Pos), and 3) experimental group: groups treated with a stimulator and ZAG3 or a ZAG3-derived oligopeptide (Z20mer-1, Z20mer-2, Z20mer-3, Z15mer-1, Z15mer-2, Z15mer-3 or Z15mer-4). Concentrations were measured from cell culture by ELISA.

Histamine = test: Atopic dermatitis efficacy test using mast cells (RBL-2H3): histamine released after PMA and A23187, ELISA; assay type: cell-based, rat; set-up: key: •: have statistical significance, determining as effective, compared with the positive control; conditions: 1 μg/mL for 24 hours, then PMA 1 μg/mL, A23187 1 μg/mL 12 hours
Experimental: as §1
Mast cells (RBL-2H3) were treated with 1 μg/mL of PMA and 1 μg/mL of A23187 as stimulators for 12 hours, and a concentration of histamine released in a cell culture medium was confirmed by ELISA assay.
as §2, §3
Mast cells (RBL-2H3) were treated with 1 μg/mL of PMA and 1 μg/mL of A23187 as simulators for 12 hours, and then a concentration of histamine released in a cell culture medium was confirmed by ELISA assay. As compared with the positive control (Pos), in all of the oligopeptide-treated groups, the histamine release was reduced (FIG. 2B).

IL-4 = test: Atopic dermatitis efficacy test using T lymphocytes: IL-4 released after IL-2, ELISA; assay type: cell-based, human; set-up: key to T lymphocyte (human) IL-4: •: have statistical significance, determining as effective, compared with the positive control; conditions: for IL-4 concentration released in cell culture medium: Example 1-5, FIG. 1E, IL-2 50 ng/mL 12 hours; for IL-4 concentration released in cell culture medium / IL-4: T lymphocytes, 1 μg/mL 24 hours; for T lymphocyte (human) IL-4: 1 μg/mL for 24 hours, then IL-2 50 ng/mL 12 hours; for IL-4: Example 2-5, FIG. 2E, compared with positive control (Pos)
Experimental: as §1
An atopic dermatitis efficacy test using T lymphocytes was performed with six peptide candidate groups (Z3, Z4, Z5, Z12, Z14, and Z15), which were determined to have efficacy from the results of Examples 1-1 to 1-4 described above. T lymphocytes were treated with 50 ng/mL of IL-2 as a stimulator for 12 hours, and a concentration of IL-4 released in a cell culture medium was confirmed by ELISA assay.
as §2, §3
An experiment was performed on T lymphocytes using the target peptides selected through the previous experiment. As compared with the positive control (Pos), in all of the oligopeptide-treated groups (Z20mer-1, Z20mer-2, Z20mer-3, Z15mer-1, Z15mer-2, Z15mer-3, and Z15mer-4), IL-4 was reduced (FIG. 2E).

IgE = test: Atopic dermatitis efficacy test using B lymphocytes (RPMI 1788): IgE released after LPS, ELISA; assay type: cell-based, human; set-up: key: •: have statistical significance, determining as effective, compared with the positive control; conditions: then LPS 0.1 μg/mL 24 hours
Experimental: as §1
(§4) B lymphocytes (RPMI 1788) were treated with 0.1 μg/mL of LPS as a stimulator for 24 hours, and a concentration of IgE released in a cell culture medium was confirmed by ELISA assay.
as §2, §3
as §4, with “and then” for “and”, “assay. As compared with the positive control (Pos), in all of the oligopeptide-treated groups, IgE was reduced (FIG. 2D).” for “assay.”

IL-6 = test: Atopic dermatitis efficacy test using macrophages (RAW 264.7): IL-6 released after LPS, ELISA; assay type: cell-based, mouse; set-up: key to RAW 264.7 (mouse) IL-6: •: have statistical significance, determining as effective, compared with the positive control; conditions: for IL-6 concentration released in cell culture medium: Example 2-1, FIG. 2A, RAW 264.7, 1 μg/mL 24 hours, LPS 0.1 μg/mL 24 hours, compared with positive control (Pos); for RAW 264.7 (mouse) IL-6: 1 μg/mL for 24 hours, then LPS 0.1 μg/mL 24 hours
Experimental: as §1
Macrophages (RAW 264.7 cells) were treated with a stimulator LPS at a concentration of 0.1 μg/mL for 24 hours, and then the concentration of IL-6 released in a cell culture medium was confirmed by ELISA assay.
as §2, §3
Macrophages (RAW 264.7 cells) were treated with a stimulator LPS at a concentration of 0.1 μg/mL for 24 hours, and then a concentration of IL-6 released in a cell culture medium was confirmed by ELISA assay.

[1] = Table 3, 1 μg/mL for 24 hours, vs stimulator only
[2] = Table 5, 1 μg/mL for 24 hours, vs positive control

Molecule | CCL17/TARC concentration released in cell culture medium (CCL17/TARC) | HaCaT (human) CCL17/TARC (CCL17/TARC; Table 3, vs stimulator only) | RBL-2H3 (rat) Histamine (Histamine; Table 3, vs stimulator only) | IL-4 concentration released in cell culture medium (IL-4) | T lymphocyte (human) IL-4 (IL-4; Table 3, vs stimulator only) | B lymphocyte (human) IgE (IgE; [1]) | IL-6 concentration released in cell culture medium (IL-6) | RAW 264.7 (mouse) IL-6 (IL-6; Table 3, vs stimulator only) | HaCaT (human) CCL17/TARC (CCL17/TARC; Table 5, vs positive control) | RBL-2H3 (rat) Histamine (Histamine; Table 5, vs positive control) | IL-4 (IL-4) | T lymphocyte (human) IL-4 (IL-4; Table 5, vs positive control) | B lymphocyte (human) IgE (IgE; [2]) | RAW 264.7 (mouse) IL-6 (IL-6; Table 5, vs positive control)
Z3: ZAG protein-derived peptide, SEQ ID NO. 3: EDWKQDSQLQKAREDIFMETLKDIVEYYND (ZAG protein-derived peptide) | significantly decreased | • | • | significantly decreased | • | • | significantly decreased | • | – | – | – | – | – | –
Z4: ZAG protein-derived peptide, SEQ ID NO. 4: SNGSHVLQGRFGCEIENNRSSGAFWKYYYD (ZAG protein-derived peptide) | – | • | • | significantly decreased | • | • | – | • | – | – | – | – | – | –
Z5: ZAG protein-derived peptide, SEQ ID NO. 5: GKDYIEFNKEIPAWVPFDPAAQITKQKWEA (ZAG protein-derived peptide) | – | • | • | significantly decreased | • | • | – | • | – | – | – | – | – | –
Z6: ZAG protein-derived peptide, SEQ ID NO. 6: EPVYVQRAKAYLEEECPATLRKYLKYSKNI (ZAG protein-derived peptide) | – | • | • | – | – | • | – | • | – | – | – | – | – | –
Z7: ZAG protein-derived peptide, SEQ ID NO. 7: LDRQDPPSVVVTSHQAPGEKKKLKCLAYDF (ZAG protein-derived peptide) | – | • | • | – | – | • | – | • | – | – | – | – | – | –
Z8: ZAG protein-derived peptide, SEQ ID NO. 8: YPGKIDVHWTRAGEVQEPELRGDVLHNGNG (ZAG protein-derived peptide) | – | • | • | – | – | • | – | • | – | – | – | – | – | –
Z14: ZAG protein-derived peptide, SEQ ID NO. 14: IFMETLKDIVEYYNDSNGSHVLQGRFGCEI (ZAG protein-derived peptide) | – | • | • | significantly decreased | • | • | – | • | – | – | – | – | – | –
Z15mer-3: ZAG3-derived oligopeptide, SEQ ID NO. 25: KAREDIFMETLKDIV (ZAG protein-derived peptide) | significantly decreased | – | – | – | – | – | significantly decreased | – | • | • | reduced | • | • | •
Z15mer-4: ZAG3-derived oligopeptide, SEQ ID NO. 26: IFMETLKDIVEYYND (ZAG protein-derived peptide) | significantly decreased | – | – | – | – | – | significantly decreased | – | • | • | reduced | • | • | •
Z18: ZAG protein-derived peptide, SEQ ID NO. 18: AVPPQDTAPYSCHVQHSSLAQPLVVPWEAS (ZAG protein-derived peptide) | – | • | • | – | – | • | – | – | – | – | – | – | – | –
Z20mer-1: ZAG3-derived oligopeptide, SEQ ID NO. 20: EDWKQDSQLQKAREDIFMET (ZAG protein-derived peptide) | significantly decreased | – | – | – | – | – | – | – | • | • | reduced | • | • | –
Z0: ZAG protein, entire sequence of 298 amino acids (GenBank: AAH05306.1; SEQ ID NO: 19) (protein, listed as Homo sapiens) MVRMVPVLLSLLLLLGPAVPQENQDGRYSLTYIYTGLSKHVEDVPAFQALGSLNDLQFFRYNSKDRKSQPMGLWRQVEGMEDWKQDSQLQKAREDIFMETLKDIVEYYNDSNGSHVLQGRFGCEIENNRSSGAFWKYYYDGKDYIEFNKEIPAWVPFDPAAQITKQKWEAEPVYVQRAKAYLEEECPATLRKYLKYSKNILDRQDPPSVVVTSHQAPGEKKKLKCLAYDFYPGKIDVHWTRAGEVQEPELRGDVLHNGNGTYQSWVVVAVPPQDTAPYSCHVQHSSLAQPLVVPWEAS | – | • | • | – | • | • | – | • | – | – | – | – | – | –
